Legend:
MCF-7 cells = assay: MTT cell viability; assay type: cell-based, human; settings: read-out: concentration for 50% reduction of viability (IC50), MCF-7, 48 h, mean ± SD for three trials
Procedure: (§1) Figures are representative of three trials with data plotted as mean percentage versus untreated cells±SD of the four replicates per plate). Vehicle (DMSO or 10 mM NaOH) was added as a control to otherwise untreated cells.
(§2) For examples utilizing cell culture methods, the following procedure was instituted. Human breast adenocarcinoma cells (MDA-MB-231, MCF-7 and MDA-MB-468; American Type Culture Collection, Manassas, Va.) were grown as monolayers in RPMI 1640 (Invitrogen, Carlsbad, Calif.) supplemented with 10% FBS (Hyclone, Thermo Fisher Scientific Inc., Waltham, Mass.), penicillin (50 units mL^−1) and streptomycin ([…]; Life Technologies, Inc., Grand Island, N.Y.). Non-tumorigenic, human breast epithelial cells (MCF-10A; American Type Culture Collection) and HUVECs (Cell Applications, Inc., San Diego, Calif.) were grown as monolayers in endothelial growth media (Lonza Inc., US-Allendale, N.J. or Cell Applications, Inc., San Diego, Calif.). Cells were seeded at a density of 1×10^6 cells per 100 cm^2 culture dish and were incubated at 37° C. in 5% CO2 at 80% relative humidity. Single-cell suspensions were obtained by trypsinization (0.05% trypsin/EDTA, Invitrogen, Carlsbad, Calif.). MDA-MB-231 cells stably transfected with green fluorescent protein (GFP) and G418 antibiotic resistance gene were a generous gift from Dr. Aldona Karaczyn from the Maine Medical Center Research Institute, Scarborough, Me. MDA-MB-231-GFP cells were grown as described for MDA-MB-231 cells with the addition of […] ([…]) to ensure vector presence.
(§3) In this example, the impact of IPA/NO-aspirin and DEA/NO-aspirin was assessed compared to aspirin or the parent diazeniumdiolate on proliferation of four human breast cell lines: MDA-MB-231 (ER(−) adenocarcinoma), MDA-MB-468 (ER(−) adenocarcinoma), MCF-7 (ER(+) adenocarcinoma) and MCF-10A (non-tumorigenic, immortalized human breast epithelial cells).

MDA-MB-231 cells [1] = assay: MTT cell viability; assay type: cell-based, human; settings: read-out: concentration for 50% reduction of viability (IC50), MDA-MB-231, 48 h, mean ± SD for three trials
Procedure: as §1, §2, §3

MDA-MB-231 cells [2] = assay: Oxidation of DCF (oxidant level) in cells; assay type: cell-based, human; settings: 100 μM, 37° C., MDA-MB-231 as representative example
Procedure: DCF loaded cells were treated with IPA/NO-aspirin (blue), DEA/NO-aspirin (green), IPA/NO (magenta), DEA/NO (brown), aspirin (red) or DMSO (0.1%; black) at 37° C., and the fluorescence at 535 nm was measured in a time-dependent manner. Data are plotted as mean±SD (n=4).

[3] = Stability in phosphate buffer pH 7.4; assay type: physicochemical
Procedure: The newly synthesized HNO-releasing aspirin (IPA/NO-aspirin, 4) and NO-releasing aspirin (DEA/NO-aspirin, 8) were evaluated for the kinetic profile of NO and HNO release in buffer and cells.

[4] = system: E-cadherin in MDA-MB-231 cells; assay: E-cadherin expression (RT-PCR, Western blot); assay type: cell-based, human; settings: 100 μM, 3, 6 or 12 h; for E-cadherin mRNA expression: RT-PCR; for E-cadherin protein level: Western blot
Procedure: The cells were treated with vehicle (black) or 100 μM IPA/NO-aspirin (blue) or DEA/NO-aspirin (green) for 3, 6 or 12 h at 37° C. Relative mRNA expression was measured using RT-PCR techniques. E-cadherin mRNA were quantified with respect to control (1).
The cells were treated with vehicle (black) or 100 μM IPA/NO-aspirin (blue) or DEA/NO-aspirin (green) for 3, 6 or 12 h at 37° C. Protein expression was measured using Western blot techniques. E-cadherin protein levels were quantified with respect to control (100%).
Epithelial cadherin (E-cadherin) is calcium-dependent, membrane-associated cellular adhesion glycoprotein. Loss of E-cadherin-mediated cellular adhesion is a prerequisite for invasion and metastasis of tumor cells. NO is an endogenous mediator of endothelial cell migration. […] However, the effect of HNO on metastasis has not been studied. […] This can result in a reversal of tumor cells from an invasive, mesenchymal, to a benign, epithelial phenotype.

[5] = molecular target: T1, GAPDH in MDA-MB-231 cells (Homo sapiens, UniProt P04406); assay: GAPDH activity in cells; assay type: cell-based; settings: MDA-MB-231, 0-100 μM, 1 h, 37° C.
T1 construct: host or cells: MDA-MB-231; MCF-10A
Procedure: (§4) The cells were treated with varied concentrations (0, 25, 50, 75, 100 μM) of IPA/NO-aspirin (blue) or DEA/NO-aspirin (green) for 1 h at 37° C. GAPDH activity was assessed by measuring fluorescence intensity at 570 nm. Data are plotted as mean±SD (n=3).
(§5) GAPDH is a critical glycolytic enzyme that can play an important role in cancer therapy as solid tumors often utilize glycolytic pathways even during normoxia to meet their energy requirements. Thus, inhibition of GAPDH can diminish ATP availability for tumor cells. GAPDH is also involved in initiation of apoptosis and in DNA repair.

GAPDH in MCF-10A cells = molecular target: T2, GAPDH in MCF-10A cells (Homo sapiens, UniProt P04406); assay: GAPDH activity in cells; assay type: cell-based; settings: 0-100 μM, 1 h, 37° C.
T2 construct: host or cells: MDA-MB-231; MCF-10A
Procedure: as §4, §5

[6] = system: cleaved PARP in MDA-MB-231 cells; assay: PARP cleavage by Western blot; assay type: cell-based, human; settings: 1-44 h, preliminary analysis
Procedure: The cells were treated with 50 μM IPA/NO-aspirin (blue) or 75 μM DEA/NO-aspirin (green), respectively at 37° C., and protein was collected at various time points (1-44 h). Lanes 1-6 (20 μg of protein): IPA/NO-aspirin at 1, 3, 6, 10, 20, 44 h; […]: DEA/NO-aspirin at 1, 6, 10, 20, 30, 44 h; Lane 15: control. Cleaved PARP levels at different time points were quantified by Western blot with respect to control, which was treated as 100%. HPRT was used as the loading control.
Since a number of chemotherapies and radiation therapy are based on inducing DNA damage in cancer cells, inhibition of PARP by HNO donors may increase the efficacy of these treatments. Furthermore, IPA/NO-aspirin is able to not only induce DNA damage but also to impede DNA repair.

caspase-3 = assay: Caspase-3 activity in breast cancer cells; assay type: cell-based, human; settings: MDA-MB-231, MDA-MB-468, MCF-7; 0-100 μM, 24 h, 37° C.
Procedure: The cells were treated with various concentrations (0, 25, 50, 100 μM) of IPA/NO-aspirin (blue) or DEA/NO-aspirin (green) for 24 h at 37° C. Caspase-3 activity was determined by recording the fluorescence ( ? 485 nm, ? 535 nm) of the product formed by cleavage of the substrate, N-Ac-DEVD-N′-MC-R11. Data are plotted as mean±SD (n=3).
Caspases are cysteine-aspartate proteases that can trigger apoptosis through a signaling cascade. Caspase-3 is an effector protease that has active cysteine residues that are susceptible to S-nitrosation. The impact of this modification has been variously reported to lead to reversible inhibition and to activation.

T2 sequence (P04406 whole entry): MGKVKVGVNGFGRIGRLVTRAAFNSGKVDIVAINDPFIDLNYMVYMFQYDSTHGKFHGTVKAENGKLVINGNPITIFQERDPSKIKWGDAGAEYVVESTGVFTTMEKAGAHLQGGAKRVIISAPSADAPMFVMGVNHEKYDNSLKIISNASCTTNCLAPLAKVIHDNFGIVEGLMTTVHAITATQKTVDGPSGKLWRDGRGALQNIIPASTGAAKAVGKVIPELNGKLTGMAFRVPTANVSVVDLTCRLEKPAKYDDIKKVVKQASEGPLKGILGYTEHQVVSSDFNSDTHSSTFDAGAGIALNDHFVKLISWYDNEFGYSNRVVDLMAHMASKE
T1 sequence (P04406 whole entry): as above

Row | Structure (SMILES) | IC50 (MCF-7 cells) [µM] | IC50 (MDA-MB-231 cells [1]) [µM] | oxidation of DCF (fluorescence intensity) (MDA-MB-231 cells [2]) | stability in buffer [3] | E-cadherin mRNA expression [4] | E-cadherin protein level [4] | GAPDH activity [5] | GAPDH activity (GAPDH in MCF-10A cells) | level of cleaved PARP ([6]; 75 μM) | caspase-3 activity (caspase-3) | level of cleaved PARP ([6]; 50 μM)
1 | CCN(CC)[N+]([O-])=NOCOC(=O)c1ccccc1OC(C)=O [DEA/NO-aspirin, O2-(Acetylsalicyloyloxymethyl)-1-(N,N-Diethylamino)-diazen-1-ium-1,2-diolate] | 122 ± 3 | 102 ± 10 | minimal impact | relatively stable in phosphate buffer pH 7.4 for several hours | did increase E-cadherin expression in a time-dependent manner | did increase E-cadherin expression in a time-dependent manner | not inhibitory in either cell line | not inhibitory in either cell line | relatively short-lived | more modest in MDA-MB-231 and MCF7 cells | –
2 | CC(=O)Oc1ccccc1C(=O)OCON=[N+]([O-])NC(C)C [IPA/NO-aspirin, O2-(Acetylsalicyloyloxymethyl)-1-(N-isopropylamino)-diazen-1-ium-1,2-diolate] | 93 ± 2 | 92 ± 1 | significant increase in fluorescence intensity | relatively stable in phosphate buffer pH 7.4 for several hours | does not show any significant change | does not show any significant change | inhibited GAPDH activity in a concentration (FIG. 9A) and time-dependent-manner | did not affect GAPDH activity | – | activated caspase-3 in all three breast cancer lines | increases the level of cleaved PARP in a longer-term fashion
